Among the test systems are NCI-H460 lung; MOLT-4 leukemia; KM12 colon; SK-MEL-28 melanoma; HL-60(TB) leukemia; SF-539 CNS; UACC-62 melanoma; SN12C renal; K-562 leukemia; LOX IMVI melanoma.
What all share (assay): inhibition of tumour cell growth, NCI panel, 48 h

The results in this text go back to PubChem BioAssay (NCI).

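1) Cells in 96-well plates. 2) Compound, 48 h, 5 concentrations. 3) Linear interpolation between surrounding doses. 4) Unreached endpoint = highest concentration. The concentration for 50% growth inhibition is given as GI50. The concentration for full growth arrest is given as TGI.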 Where a SMILES comes first, the peptide text is derived from it.

`Cc1nc2ncn3c(c-2c1Cc1ccccc1)NC=C(O)N3`: the TGI in the test with NCI-H460 lung, in the test on MOLT-4 leukemia, with KM12 colon, in the test on SK-MEL-28 melanoma, with HL-60(TB) leukemia and with SF-539 CNS was greater than 100 µM throughout. Also, the TGI in the test on UACC-62 melanoma and in the test on SN12C renal was greater than 100 µM each time.

With `CCCN1C(=O)CSC1=Nc1ccc2cc3ccc(N=C4SCC(=O)N4CCC)cc3nc2c1`, the GI50 in the test with NCI-H460 lung is 66.3 µM; in the test with MOLT-4 leukemia it was greater than 100 µM; in the test on KM12 colon, 35.9 µM; with SK-MEL-28 melanoma it was greater than 100 µM; in the test with HL-60(TB) leukemia it was greater than 100 µM; with SF-539 CNS it was 59.2 µM. In addition, the GI50 is 85.9 µM with UACC-62 melanoma, 52.2 µM with K-562 leukemia, greater than 100 µM with SN12C renal and greater than 100 µM with LOX IMVI melanoma. The TGI in the test with NCI-H460 lung, with MOLT-4 leukemia, in the test with KM12 colon, in the test with SK-MEL-28 melanoma, in the test on HL-60(TB) leukemia and in the test on SF-539 CNS was greater than 100 µM in each case. Also, the TGI in the test on UACC-62 melanoma, in the test on K-562 leukemia, in the test on SN12C renal and in the test on LOX IMVI melanoma was greater than 100 µM throughout.

In the case of `CSCCC(NC(=O)OCc1ccccc1)P(=O)(O)c1ccccc1` (stereo not given), the TGI with NCI-H460 lung, in the test with MOLT-4 leukemia, with SK-MEL-28 melanoma, in the test on HL-60(TB) leukemia, in the test on K-562 leukemia and in the test on SN12C renal was greater than 100 µM each time. The molecule also yielded a TGI in the test with LOX IMVI melanoma greater than 100 µM.

For `O=[N+]([O-])c1ccc2c(c1)nc(Cc1ccc(Cl)cc1)n2C[C@@H]1CCCN2CCCCC12` (stereo not given in full), the TGI in the test on NCI-H460 lung was 31.2 µM; in the test on MOLT-4 leukemia it was greater than 44.8 µM; in the test on KM12 colon it was 27.9 µM; in the test with SK-MEL-28 melanoma, 30.1 µM; in the test with HL-60(TB) leukemia, 66.1 µM; with SF-539 CNS, 35.1 µM. Moreover, the TGI in the test with UACC-62 melanoma was 28.7 µM; in the test with K-562 leukemia, greater than 54.1 µM; in the test with SN12C renal it was 27.6 µM; in the test on LOX IMVI melanoma, 28.7 µM.

With `C/C(N=Nc1nc2ccccc2[nH]1)=C1/C=CC=CN1O`, the TGI in the test with NCI-H460 lung, in the test with MOLT-4 leukemia, in the test on KM12 colon, in the test with SK-MEL-28 melanoma, in the test with SF-539 CNS and in the test on UACC-62 melanoma was greater than 100 µM in each case. The TGI with K-562 leukemia, in the test with SN12C renal and in the test with LOX IMVI melanoma was greater than 100 µM in each case.

As to `CC(=O)Oc1ccc(CO)cc1OC(C)=O`, the TGI in the test on NCI-H460 lung was greater than 100 µM; with MOLT-4 leukemia, greater than 100 µM; with KM12 colon, greater than 100 µM; in the test on SK-MEL-28 melanoma, greater than 100 µM; in the test on HL-60(TB) leukemia, 75.2 µM; with UACC-62 melanoma it was greater than 100 µM. Further, the TGI with K-562 leukemia, with SN12C renal and in the test with LOX IMVI melanoma was greater than 100 µM each time.

Consider `COC(=S)OC1CC(n2cnc3c(N)ncnc32)OC1CO[Si](C)(C)C(C)(C)C` (stereo not given), for which the TGI in the test on NCI-H460 lung is 48.1 µM; with MOLT-4 leukemia, greater than 100 µM; in the test with KM12 colon it was 89.8 µM; in the test on SK-MEL-28 melanoma, 96.7 µM; in the test on HL-60(TB) leukemia it was greater than 100 µM; in the test on UACC-62 melanoma, 24 µM. The values for the TGI in the test with K-562 leukemia, in the test with SN12C renal and with LOX IMVI melanoma were greater than 100 µM, 48.6 µM and greater than 100 µM, respectively.

`CC1(C)CCC[C@]2(C)[C@@H]1CC[C@@]13O[C@@H]1C1=C(CO)C(=O)OC1=C[C@@H]23`: the TGI with NCI-H460 lung was 67.4 µM; with MOLT-4 leukemia, greater than 100 µM; with KM12 colon, 24.8 µM; in the test on SK-MEL-28 melanoma it was 31.7 µM; in the test with UACC-62 melanoma it was 40.7 µM; in the test on K-562 leukemia, greater than 100 µM. In addition, in the test with SN12C renal, the TGI is 25.9 µM.

In the case of `O=c1[nH]c(Nc2ccc(Cl)cc2)nc2nc[nH]c12`, the TGI with NCI-H460 lung, in the test with KM12 colon, in the test on SK-MEL-28 melanoma, in the test with HL-60(TB) leukemia, with SF-539 CNS and with UACC-62 melanoma was greater than 100 µM each time. The TGI in the test with SN12C renal and in the test on LOX IMVI melanoma was greater than 100 µM in each case.

As to `COC(=O)C[C@H](COCc1ccccc1)NC(=O)C[C@H](COCc1ccccc1)NC(=O)OC(C)(C)C`, the TGI with MOLT-4 leukemia, with KM12 colon, with SK-MEL-28 melanoma, in the test on HL-60(TB) leukemia, in the test on SF-539 CNS and in the test with UACC-62 melanoma was greater than 100 µM in each case. Moreover, the figures for the TGI in the test with K-562 leukemia, with SN12C renal and in the test with LOX IMVI melanoma were greater than 100 µM, 80.6 µM and greater than 100 µM, respectively.

Consider `Cc1cc(=O)[nH]c(/N=C(\N)Nc2ccc(Cl)cc2)n1`, for which the TGI with NCI-H460 lung, in the test with MOLT-4 leukemia, in the test with KM12 colon, with SK-MEL-28 melanoma, in the test on HL-60(TB) leukemia and in the test with UACC-62 melanoma was greater than 100 µM in each case. Also, the TGI in the test on K-562 leukemia, in the test with SN12C renal and with LOX IMVI melanoma was greater than 100 µM throughout.

In the case of `O=C1c2ccccc2C(C2c3ccccc3C(=O)c3cc(Br)ccc32)c2ccc(Br)cc21` (stereo not given), the TGI in the test on MOLT-4 leukemia, in the test on KM12 colon, in the test with SK-MEL-28 melanoma, in the test with UACC-62 melanoma, in the test on K-562 leukemia and in the test on SN12C renal was greater than 100 µM throughout. Further, the TGI in the test on LOX IMVI melanoma is greater than 100 µM.

For the molecule `CCC(C)C(NC(=O)C1CCCN1C(=O)C(CC(C)C)NC(=O)C(CC(C)C)NC(=O)C(N)CC(C)C)C(=O)NC(C(=O)NCC(=O)NC(CC(N)=O)C(=O)NC(CC(C)C)C(=O)NC(CC(C)C)C(=O)NC(CC(C)C)C(N)=O)C(C)C` (stereo not given) (H-LLLPIVGNLLL-NH2; configuration not given here), the TGI in the test with MOLT-4 leukemia, in the test with KM12 colon, in the test with SK-MEL-28 melanoma, with HL-60(TB) leukemia, in the test on SF-539 CNS and in the test with UACC-62 melanoma was greater than 50 µM in each case. Besides, the TGI in the test with SN12C renal and in the test with LOX IMVI melanoma was greater than 50 µM each time.
